This note sets out measurements from patent US9120727B2, “Process for the preparation of pleuromutilins” (NABRIVA THERAPEUTICS AG, priority 2010, dated 2015).

Data set [1] can be described thus: Comparative stability of crystalline and amorphous salts of compound I, stored at 60° C., HPLC. It is filed as physicochemical. From the text:
In the following TABLE 4 comparative stability data of the corresponding crystalline and amorphous salts of compound I are shown. [table]

Data set [2] in a line: Solubility of crystalline salts in water, aqueous vehicles and biorelevant media. It is filed as physicochemical. The following applies: 0.9% NaCl solution, FaSSIF and FeSSIF.
The subject of data set [3] is Streptococcus pneumoniae ATCC49619. The data set can be described thus: Minimum inhibitory concentration (MIC) in accordance with CLSI recommendations. It is filed as cell-based. As to the method: (§1) The antimicrobial, e.g. antibacterial activity of 14-O-{[(4-amino-2-hydroxy-cyclohexyl)-sulfanyl]-acetyl}-mutilins was outlined in WO2008/113089. […] The minimum inhibitory concentration (MIC) was determined in accordance with CLSI recommendations.

Data set [4] has as its system Staphylococcus aureus ATCC49951. Described as above. It counts as cell-based. As to the method:
as §1

Setting [5] is: 28 d at 60° C., * sample did not fully dissolve in water, suspension analyzed.

Where a name gives a salt, the structure may show the parent alone. A value given as a limit tells only on which side of the number the result lay.

Consider `C=C[C@]1(C)C[C@@H](OC(=O)CS[C@@H]2CC[C@@H](N)C[C@H]2O)[C@]2(C)C(C)CC[C@]3(CCC(=O)[C@H]32)[C@@H](C)[C@@H]1O` (stereo partly drawn) [Acetate (Form B) crystalline, 14-O-{[(1R,2R,4R)-4-Amino-2-hydroxy-cyclohexyl-sulfanyl]-acetyl}-mutilin acetate, crystalline Form B], for which the “Area % of 14-O-{[(1R,2R,4R)-4-amino-2-hydroxy-cyclohexylsulfanyl]-acetyl}-mutilin (compound I) by HPLC stored at 60° C.” value in data set [1] (setting [5]) was determined as 98.9 Area %; in data set [1] (Initial), 99.5 Area %.

Turning to `C=C[C@]1(C)C[C@@H](OC(=O)CS[C@@H]2CC[C@@H](N)C[C@H]2O)[C@]2(C)C(C)CC[C@]3(CCC(=O)[C@H]32)[C@@H](C)[C@@H]1O` (stereo partly drawn) [Hydrogen maleate crystalline, 14-O-{[(1R,2R,4R)-4-Amino-2-hydroxy-cyclohexylsulfanyl]-acetyl}-mutilin hydrogenmaleate, crystalline Form 1], the solubility result in data set [2] is given as “surprisingly high”.

Regarding `C=C[C@]1(C)C[C@@H](OC(=O)CS[C@@H]2CC[C@@H](N)C[C@H]2O)[C@]2(C)C(C)CC[C@]3(CCC(=O)[C@H]32)[C@@H](C)[C@@H]1O` (stereo partly drawn) [L-Lactate crystalline, 14-O-{[(1R,2R,4R)-4-Amino-2-hydroxy-cyclohexylsulfanyl]-acetyl}-mutilin L-lactate, crystalline Form 1], in data set [2], the solubility entry is recorded as “surprisingly high”. Also, the “Area % of 14-O-{[(1R,2R,4R)-4-amino-2-hydroxy-cyclohexylsulfanyl]-acetyl}-mutilin (compound I) by HPLC stored at 60° C.” value in data set [1] (setting [5]) amounted to 98.3 Area %; in data set [1] (Initial), 99.4 Area %.

As for `C=C[C@]1(C)C[C@@H](OC(=O)CS[C@@H]2CC[C@@H](N)C[C@H]2O)[C@]2(C)C(C)CC[C@]3(CCC(=O)[C@H]32)[C@@H](C)[C@@H]1O` (stereo partly drawn) [compound of formula I, 14-O-{[(1R,2R,4R)-4-amino-2-hydroxy-cyclohexylsulfanyl]-acetyl}-mutilin], the MIC in data set [3] and in data set [4] was less than 0.4 µg/mL each time.
